Assay results published in ChEMBL document CHEMBL4118021, “Studies of TAK1-centered polypharmacology with novel covalent TAK1 inhibitors” (Bioorg Med Chem, 2017).
Active and inactive are the calls of the source.

What was measured:
Assay type in all cases: cell-based
[1] = target: Importin subunit alpha-1 (Homo sapiens) (UniProt P52292); assay: Binding affinity to KPNA2 in human NCI-H358 cells at 1 uM by mass spectrometry based pull down assay
[2] = target: Dual specificity mitogen-activated protein kinase kinase 2 (Homo sapiens) (UniProt P36507); assay: Binding affinity to MAP2K2 in human NCI-H358 cells at 1 uM by mass spectrometry based pull down assay
[3] = target: Cyclin-dependent kinase 4 (Homo sapiens) (UniProt P11802); assay: Binding affinity to CDK4 in human NCI-H358 cells at 1 uM by mass spectrometry based pull down assay
[4] = target: T1, 80S Ribosome (Homo sapiens) (UniProt P08865+P42677+P62753+P15880+P23396+P61247+P62701+P22090+P46782+P62081+P62241+P46781+P46783+P62280+P25398+P62277+P62263+P62841+P62244+P62249+P08708+P62269+P39019+P60866+P63220+P62266+P62847+P62851+P62854+P62979+P62857+P62273+P62861+P39023+P36578+P46777+Q02878+P18124+P62424+P62917+P32969+P27635+P62906+P62913+P30050+P26373+P40429+P50914+P61313+P18621+Q07020+Q02543+P84098+P46778+P35268+P62829+P62750+P83731+P61254+P61353+P46776+P46779+P47914+P62888+P62899+P62910+P49207+P42766+P18077+Q9Y3U8+P83881+P61927+P61513+P63173+P62891+P62945+P05388+P05386); assay: Binding affinity to RPL10 in human NCI-H358 cells at 1 uM by mass spectrometry based pull down assay
[5] = target: T2, Serine/threonine-protein kinase D2 (Homo sapiens) (UniProt Q9BZL6); assay: Binding affinity to PRKD2 in human NCI-H23 cells at 1 uM by mass spectrometry based pull down assay
T2 sequence (whole entry): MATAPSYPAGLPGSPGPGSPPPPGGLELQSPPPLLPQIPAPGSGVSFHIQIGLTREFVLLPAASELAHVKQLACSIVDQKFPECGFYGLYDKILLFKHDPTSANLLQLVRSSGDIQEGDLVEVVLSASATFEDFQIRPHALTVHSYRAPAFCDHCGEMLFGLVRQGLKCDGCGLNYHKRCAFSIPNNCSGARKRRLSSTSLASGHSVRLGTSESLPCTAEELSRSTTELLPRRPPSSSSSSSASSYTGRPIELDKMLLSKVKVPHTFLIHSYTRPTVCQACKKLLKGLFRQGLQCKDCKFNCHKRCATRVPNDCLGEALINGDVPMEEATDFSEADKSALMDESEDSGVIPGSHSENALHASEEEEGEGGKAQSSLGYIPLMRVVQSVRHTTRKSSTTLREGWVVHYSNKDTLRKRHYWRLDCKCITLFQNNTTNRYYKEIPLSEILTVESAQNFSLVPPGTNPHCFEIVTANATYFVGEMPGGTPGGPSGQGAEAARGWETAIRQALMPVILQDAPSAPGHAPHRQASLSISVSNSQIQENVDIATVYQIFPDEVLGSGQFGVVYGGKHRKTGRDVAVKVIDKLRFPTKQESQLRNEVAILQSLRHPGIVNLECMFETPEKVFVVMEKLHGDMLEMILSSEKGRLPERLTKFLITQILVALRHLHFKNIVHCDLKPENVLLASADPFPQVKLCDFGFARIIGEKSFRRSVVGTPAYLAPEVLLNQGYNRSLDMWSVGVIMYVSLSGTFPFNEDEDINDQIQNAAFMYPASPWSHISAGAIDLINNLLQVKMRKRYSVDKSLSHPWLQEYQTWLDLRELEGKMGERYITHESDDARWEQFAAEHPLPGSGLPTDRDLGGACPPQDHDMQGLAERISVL

[6] = target: Serine/threonine-protein kinase Chk2 (Homo sapiens) (UniProt O96017); assay: Binding affinity to CHEK2 in human NCI-H23 cells at 1 uM by mass spectrometry based pull down assay
[7] = target: Cyclin-G-associated kinase (Homo sapiens) (UniProt O14976); assay: Binding affinity to GAK in human NCI-H23 cells at 1 uM by mass spectrometry based pull down assay
[8] = target: Prostaglandin reductase 1 (Homo sapiens) (UniProt Q14914); assay: Binding affinity to PTGR1 in human NCI-H23 cells at 1 uM by mass spectrometry based pull down assay
[9] = target: Small ribosomal subunit protein eS6 (Homo sapiens) (UniProt P62753); assay: Binding affinity to RPS6 in human NCI-H358 cells at 1 uM by mass spectrometry based pull down assay
[10] = target: Peroxiredoxin-6 (Homo sapiens) (UniProt P30041); assay: Binding affinity to PRDX6 in human NCI-H358 cells at 1 uM by mass spectrometry based pull down assay
[11] = target: Glutamine--fructose-6-phosphate aminotransferase [isomerizing] 1 (Homo sapiens) (UniProt Q06210); assay: Binding affinity to GFPT1 in human NCI-H358 cells at 1 uM by mass spectrometry based pull down assay
[12] = target: Cyclin-dependent kinase 5 (Homo sapiens) (UniProt Q00535); assay: Binding affinity to CDK5 in human NCI-H358 cells at 1 uM by mass spectrometry based pull down assay
[13] = target: T1, 80S Ribosome (Homo sapiens); assay: Binding affinity to RPS9 in human NCI-H358 cells at 1 uM by mass spectrometry based pull down assay
[14] = target: Ras-related protein Rab-22A (Homo sapiens) (UniProt Q9UL26); assay: Binding affinity to RAB22A in human NCI-H358 cells at 1 uM by mass spectrometry based pull down assay
[15] = target: Thioredoxin-dependent peroxide reductase, mitochondrial (Homo sapiens) (UniProt P30048); assay: Binding affinity to PRDX3 in human NCI-H23 cells at 1 uM by mass spectrometry based pull down assay
[16] = target: Acidic leucine-rich nuclear phosphoprotein 32 family member A (Homo sapiens) (UniProt P39687); assay: Binding affinity to ANP32A in human NCI-H358 cells at 1 uM by mass spectrometry based pull down assay
[17] = target: Proteasome activator complex subunit 1 (Homo sapiens) (UniProt Q06323); assay: Binding affinity to PSME1 in human NCI-H358 cells at 1 uM by mass spectrometry based pull down assay
[18] = target: Reticulon-4 (Homo sapiens) (UniProt Q9NQC3); assay: Binding affinity to RTN4 in human NCI-H358 cells at 1 uM by mass spectrometry based pull down assay
[19] = target: Serine hydroxymethyltransferase, mitochondrial (Homo sapiens) (UniProt P34897); assay: Binding affinity to SHMT2 in human NCI-H358 cells at 1 uM by mass spectrometry based pull down assay
[20] = target: Interleukin-1 receptor-associated kinase 1 (Homo sapiens) (UniProt P51617); assay: Binding affinity to IRAK1 in human NCI-H358 cells at 1 uM by mass spectrometry based pull down assay

Measured: Activity

Thioredoxin-dependent peroxide reductase, mitochondrial (Homo sapiens), sequence (P30048 whole entry): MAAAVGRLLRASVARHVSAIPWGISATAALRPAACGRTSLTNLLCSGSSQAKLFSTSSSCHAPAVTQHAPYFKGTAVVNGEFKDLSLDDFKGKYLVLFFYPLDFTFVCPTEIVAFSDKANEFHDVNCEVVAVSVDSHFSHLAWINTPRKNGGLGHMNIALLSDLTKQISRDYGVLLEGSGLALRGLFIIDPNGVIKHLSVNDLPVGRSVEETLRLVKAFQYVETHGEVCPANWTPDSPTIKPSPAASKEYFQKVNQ
Serine/threonine-protein kinase Chk2 (Homo sapiens), sequence (O96017 whole entry): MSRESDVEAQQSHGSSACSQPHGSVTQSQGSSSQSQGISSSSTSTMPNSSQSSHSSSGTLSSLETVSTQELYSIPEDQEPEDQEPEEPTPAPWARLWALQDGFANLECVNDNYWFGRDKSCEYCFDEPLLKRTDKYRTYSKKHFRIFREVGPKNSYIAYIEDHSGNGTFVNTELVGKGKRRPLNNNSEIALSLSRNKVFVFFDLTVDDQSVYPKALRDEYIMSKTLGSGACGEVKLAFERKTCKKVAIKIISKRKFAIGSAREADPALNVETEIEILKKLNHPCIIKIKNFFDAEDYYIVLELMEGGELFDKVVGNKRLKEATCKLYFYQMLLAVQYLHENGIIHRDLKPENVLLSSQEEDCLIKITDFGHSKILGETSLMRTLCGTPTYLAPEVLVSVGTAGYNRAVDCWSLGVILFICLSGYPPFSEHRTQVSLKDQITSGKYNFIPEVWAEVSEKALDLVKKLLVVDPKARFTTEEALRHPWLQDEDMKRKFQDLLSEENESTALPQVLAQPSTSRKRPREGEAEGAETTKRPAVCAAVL
Reticulon-4 (Homo sapiens), sequence (Q9NQC3 whole entry): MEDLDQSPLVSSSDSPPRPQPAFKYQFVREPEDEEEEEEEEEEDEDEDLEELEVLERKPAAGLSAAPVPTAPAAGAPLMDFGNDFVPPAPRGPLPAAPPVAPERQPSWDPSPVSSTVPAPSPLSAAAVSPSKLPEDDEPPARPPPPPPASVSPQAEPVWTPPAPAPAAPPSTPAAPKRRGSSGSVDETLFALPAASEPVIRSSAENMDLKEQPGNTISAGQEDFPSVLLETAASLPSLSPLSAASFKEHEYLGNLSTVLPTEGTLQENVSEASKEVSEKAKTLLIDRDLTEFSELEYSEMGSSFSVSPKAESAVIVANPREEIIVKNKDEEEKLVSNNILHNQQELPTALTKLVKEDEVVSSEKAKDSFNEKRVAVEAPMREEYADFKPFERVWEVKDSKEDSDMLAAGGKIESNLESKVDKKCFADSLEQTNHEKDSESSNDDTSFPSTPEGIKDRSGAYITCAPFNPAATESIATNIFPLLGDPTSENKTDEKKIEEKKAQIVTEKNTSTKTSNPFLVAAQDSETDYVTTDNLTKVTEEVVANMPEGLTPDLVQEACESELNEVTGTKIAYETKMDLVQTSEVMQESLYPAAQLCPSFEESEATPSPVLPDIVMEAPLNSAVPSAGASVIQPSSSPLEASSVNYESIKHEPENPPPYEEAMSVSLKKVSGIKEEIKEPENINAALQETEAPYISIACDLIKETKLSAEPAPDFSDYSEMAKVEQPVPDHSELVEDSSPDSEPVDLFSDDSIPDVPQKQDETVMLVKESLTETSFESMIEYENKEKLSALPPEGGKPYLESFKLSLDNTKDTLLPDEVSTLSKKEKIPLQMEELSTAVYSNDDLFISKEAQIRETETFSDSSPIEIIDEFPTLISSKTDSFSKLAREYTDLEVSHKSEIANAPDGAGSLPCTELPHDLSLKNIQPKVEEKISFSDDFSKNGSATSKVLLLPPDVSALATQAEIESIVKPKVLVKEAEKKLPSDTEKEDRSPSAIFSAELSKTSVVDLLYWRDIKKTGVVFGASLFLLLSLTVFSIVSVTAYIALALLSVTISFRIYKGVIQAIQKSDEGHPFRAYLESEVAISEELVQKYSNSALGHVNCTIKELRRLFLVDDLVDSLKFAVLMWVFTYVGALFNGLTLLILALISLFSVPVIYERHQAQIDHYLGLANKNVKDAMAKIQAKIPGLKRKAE
Prostaglandin reductase 1 (Homo sapiens), sequence (Q14914 whole entry): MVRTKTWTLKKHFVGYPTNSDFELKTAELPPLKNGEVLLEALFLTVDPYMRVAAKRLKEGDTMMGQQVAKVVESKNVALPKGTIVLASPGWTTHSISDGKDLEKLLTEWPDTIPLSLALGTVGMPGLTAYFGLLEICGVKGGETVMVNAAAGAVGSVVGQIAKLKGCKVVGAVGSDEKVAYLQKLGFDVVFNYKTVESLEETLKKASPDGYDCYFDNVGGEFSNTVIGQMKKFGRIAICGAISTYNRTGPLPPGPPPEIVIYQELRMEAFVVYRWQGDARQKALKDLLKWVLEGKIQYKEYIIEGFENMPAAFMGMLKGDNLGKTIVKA
Dual specificity mitogen-activated protein kinase kinase 2 (Homo sapiens), sequence (P36507 whole entry): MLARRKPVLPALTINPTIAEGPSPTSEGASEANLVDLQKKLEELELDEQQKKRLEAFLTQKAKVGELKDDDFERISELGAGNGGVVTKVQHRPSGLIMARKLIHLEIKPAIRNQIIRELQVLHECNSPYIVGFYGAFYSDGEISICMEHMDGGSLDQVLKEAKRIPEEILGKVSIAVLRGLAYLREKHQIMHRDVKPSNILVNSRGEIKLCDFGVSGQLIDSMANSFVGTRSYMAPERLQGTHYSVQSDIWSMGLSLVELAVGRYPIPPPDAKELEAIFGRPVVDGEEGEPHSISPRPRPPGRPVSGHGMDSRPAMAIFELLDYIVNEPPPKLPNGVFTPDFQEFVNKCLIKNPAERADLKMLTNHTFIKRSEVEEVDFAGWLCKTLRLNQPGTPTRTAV
Acidic leucine-rich nuclear phosphoprotein 32 family member A (Homo sapiens), sequence (P39687 whole entry): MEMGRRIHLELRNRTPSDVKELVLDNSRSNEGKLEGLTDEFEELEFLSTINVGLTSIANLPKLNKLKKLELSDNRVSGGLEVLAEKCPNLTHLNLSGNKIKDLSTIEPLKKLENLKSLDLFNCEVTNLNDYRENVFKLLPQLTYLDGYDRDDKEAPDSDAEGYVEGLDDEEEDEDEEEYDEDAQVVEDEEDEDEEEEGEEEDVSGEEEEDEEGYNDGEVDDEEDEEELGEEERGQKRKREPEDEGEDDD
Cyclin-dependent kinase 4 (Homo sapiens), sequence (P11802 whole entry): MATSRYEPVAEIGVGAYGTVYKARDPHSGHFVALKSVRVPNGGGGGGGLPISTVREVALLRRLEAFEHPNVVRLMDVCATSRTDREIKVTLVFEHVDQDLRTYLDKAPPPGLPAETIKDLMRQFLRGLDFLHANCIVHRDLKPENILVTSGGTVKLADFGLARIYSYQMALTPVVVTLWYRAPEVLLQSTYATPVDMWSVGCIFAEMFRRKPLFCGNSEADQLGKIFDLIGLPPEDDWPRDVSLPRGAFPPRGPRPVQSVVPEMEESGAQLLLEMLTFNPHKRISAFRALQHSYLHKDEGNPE
Glutamine--fructose-6-phosphate aminotransferase [isomerizing] 1 (Homo sapiens), sequence (Q06210 whole entry): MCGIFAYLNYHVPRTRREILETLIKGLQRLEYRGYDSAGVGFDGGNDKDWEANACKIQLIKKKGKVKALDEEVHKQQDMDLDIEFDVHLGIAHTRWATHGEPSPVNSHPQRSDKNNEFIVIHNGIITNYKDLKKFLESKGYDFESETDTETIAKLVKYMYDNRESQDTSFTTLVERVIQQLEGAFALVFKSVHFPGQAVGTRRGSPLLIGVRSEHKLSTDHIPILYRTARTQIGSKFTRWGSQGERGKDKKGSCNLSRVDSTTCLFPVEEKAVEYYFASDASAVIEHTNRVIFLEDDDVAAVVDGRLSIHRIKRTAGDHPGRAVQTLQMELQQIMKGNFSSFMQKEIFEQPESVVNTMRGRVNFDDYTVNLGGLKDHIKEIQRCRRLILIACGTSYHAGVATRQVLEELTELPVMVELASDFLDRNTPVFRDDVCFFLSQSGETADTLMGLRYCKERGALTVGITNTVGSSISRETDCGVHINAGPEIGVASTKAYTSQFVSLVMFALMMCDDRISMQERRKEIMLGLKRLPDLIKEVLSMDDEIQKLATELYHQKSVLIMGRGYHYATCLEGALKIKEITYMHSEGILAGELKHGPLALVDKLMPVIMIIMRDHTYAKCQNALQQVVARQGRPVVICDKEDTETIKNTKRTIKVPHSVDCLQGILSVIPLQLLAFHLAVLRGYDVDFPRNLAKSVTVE
Proteasome activator complex subunit 1 (Homo sapiens), sequence (Q06323 whole entry, one chain of several): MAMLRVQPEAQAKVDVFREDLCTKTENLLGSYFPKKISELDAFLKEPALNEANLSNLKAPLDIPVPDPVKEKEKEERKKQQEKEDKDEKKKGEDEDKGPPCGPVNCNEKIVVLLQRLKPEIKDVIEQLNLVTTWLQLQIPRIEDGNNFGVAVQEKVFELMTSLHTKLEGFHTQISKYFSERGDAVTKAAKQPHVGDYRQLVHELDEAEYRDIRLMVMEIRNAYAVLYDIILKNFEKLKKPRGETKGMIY
Cyclin-dependent kinase 5 (Homo sapiens), sequence (Q00535 whole entry, looked up): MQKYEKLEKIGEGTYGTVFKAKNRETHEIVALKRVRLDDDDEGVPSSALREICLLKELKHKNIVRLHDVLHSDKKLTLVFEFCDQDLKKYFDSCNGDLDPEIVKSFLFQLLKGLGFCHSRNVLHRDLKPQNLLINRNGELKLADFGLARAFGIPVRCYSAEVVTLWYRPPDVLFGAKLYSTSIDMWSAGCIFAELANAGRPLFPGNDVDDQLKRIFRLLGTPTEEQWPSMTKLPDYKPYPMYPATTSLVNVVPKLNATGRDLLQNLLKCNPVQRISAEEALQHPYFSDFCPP
Ras-related protein Rab-22A (Homo sapiens), sequence (Q9UL26 whole entry): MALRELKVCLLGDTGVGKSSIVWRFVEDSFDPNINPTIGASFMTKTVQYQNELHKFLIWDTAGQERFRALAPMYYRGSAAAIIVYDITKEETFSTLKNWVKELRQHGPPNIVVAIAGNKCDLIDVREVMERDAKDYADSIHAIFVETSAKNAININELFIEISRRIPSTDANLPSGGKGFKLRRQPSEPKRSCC
Peroxiredoxin-6 (Homo sapiens), sequence (P30041 whole entry): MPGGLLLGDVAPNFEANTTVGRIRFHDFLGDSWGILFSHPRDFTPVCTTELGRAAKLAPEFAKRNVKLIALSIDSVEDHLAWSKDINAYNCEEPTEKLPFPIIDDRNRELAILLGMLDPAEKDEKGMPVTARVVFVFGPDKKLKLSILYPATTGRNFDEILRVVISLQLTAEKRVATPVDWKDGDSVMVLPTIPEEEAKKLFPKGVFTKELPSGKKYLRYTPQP

C=CC(=O)Nc1ccccc1Nc1nc(Nc2ccc(N3CCN(CCOCCOCCOCCNC(=O)CCCC[C@@H]4SC[C@@H]5NC(=O)N[C@@H]54)CC3)cc2)ncc1Cl
active: all assays above
